Measured values as given in patent US8729098B2, “Tertiary 8-hydroxyquinoline-7-carboxamide derivatives and uses thereof” (Polichem SA, priority 2009, dated 2014).
Converted amounts (≈) assume the structure as drawn.

Experiments:
invasive aspergillosis = details: daily administered at 10 mg/kg; cited from earlier work
[1] = test system: Aspergillus Niger (ATCC 16404); test: Broth micro-dilution antifungal susceptibility test (MIC); assay type: cell-based; details: ATCC16404, 120 h, RPMI 1640 pH 7, five days at 35° C., geometric mean of two experiments
Experimental: (§1) Trichophyton Rubrum (ATCC 28188, PBI International), Trichophyton Mentagrophytes (ATCC 9533, PBI International), Aspergillus Niger (ATCC 16404, PBI International), Scopulariopsis Brevicaulis (ATCC 36840, DSMZ), Candida Albicans (ATCC 90028, PBI International), Candida Glabrata (ATCC 90030, DSMZ).
(§2) Strains were prepared from freeze-dried ampoules or freeze-dried pellets. An isolation of the suspensions was made on Potato Dextrose Agar (PDA) to test the strains purity. A strains' massive growth was then made streaking microbial suspensions on PDA plates.
(§3) Incubation was at 30° C. for 48-72 hours (Candida yeasts) and for 7-10 days (filamentous fungi).
(§4) The yeasts' colonies and the filamentous fungi's conidia were harvested with 3-5 mL of RPMI 1640+50% glycerol and the aliquots frozen at −80° C.
(§5) Compounds' minimal inhibition concentration (MIC) was determined through broth micro-dilution susceptibility test using a method developed in agreement with the National Committee for Clinical Laboratory Standards (NCCLS) (National Committee for Clinical Laboratory Standards. Reference Method for Broth Dilution Antifungal Susceptibility Testing of Yeasts; Approved standard-Second Edition M27-A2. 2002; Vol. 22, No. 15) (National Committee for Clinical Laboratory Standards. Reference Method for Broth Dilution Antifungal Susceptibility Testing of Filamentous Fungi; Approved standard M38-A. 2002; Vol. 22, No. 16).
(§6) Assays were carried out in RPMI 1640 with L-glutamine medium buffered to pH 7 with 0.165M 3-(N-morpholino)propanesulfonic acid (MOPS) and 10M NaOH and supplemented with 18 g glucose/litre. The tests were performed using 96 well sterile plates (inoculum size of 1×10^5 CFU/mL). Compounds stock solutions were prepared at 12.8 mg/mL in 100% DMSO. A series of twofold dilutions were prepared in plate using RPMI 1640. Final concentrations ranged from 0.125 to 128 μg/mL at 1% DMSO.
(§7) MIC is defined as the lowest concentration of antifungal agent which prevents any visible growth and was determined after 48 h of incubation for yeasts (35° C.) and after five days of incubation for filamentous fungi (35° C.).

[2] = test system: Candida Albicans (ATCC 90028); test: as above; assay type: cell-based; details: ATCC90028, RPMI 1640 pH 7, 48 h at 35° C., geometric mean of two experiments
Experimental: as §1, §2, §3, §4, §5, §6, §7

[3] = test system: Candida Glabrata (ATCC 90030); test: as above; assay type: cell-based; details: Nakaseomyces glabratus, ATCC90030; RPMI 1640 pH 7, 48 h at 35° C.; geometric mean of two experiments
Experimental: as §1, §2, §3, §4, §5, §6, §7

[4] = test system: Scopulariopsis Brevicaulis (ATCC 36840); test: as above; assay type: cell-based; details: ATCC36840, 120 h, RPMI 1640 pH 7, five days at 35° C., geometric mean of two experiments
Experimental: as §1, §2, §3, §4, §5, §6, §7

[5] = test system: Trichophyton Mentagrophytes (ATCC 9533); test: as above; assay type: cell-based; details: ATCC9533, 120 h, RPMI 1640 pH 7, five days at 35° C., geometric mean of two experiments, read-out: MIC Tricophyton Mentagrophytes ATCC 9533
Experimental: as §1, §2, §3, §4, §5, §6, §7

[6] = test system: Trichophyton Rubrum (ATCC 28188); test: as above; assay type: cell-based; details: ATCC28188, 120 h, RPMI 1640 pH 7, five days at 35° C., geometric mean of two experiments, read-out: MIC Trycophyton Rubrum ATCC 28188
Experimental: as §1, §2, §3, §4, §5, §6, §7

**Q.** For `C[C@@H]1[C@H](O)[C@@H](C)/C=C/C=C/C=C/C=C/C=C/C=C/C=C/[C@H](O[C@@H]2O[C@H](C)[C@@H](O)[C@H](N)[C@@H]2O)C[C@@H]2O[C@](O)(C[C@@H](O)C[C@@H](O)[C@H](O)CC[C@@H](O)C[C@@H](O)CC(=O)O[C@H]1C)C[C@H](O)[C@H]2C(=O)O` [Amphotericin B], which rate of nephrotoxicity (invasive aspergillosis) is on record?
**A.** Its rate of nephrotoxicity is 31%.

**Q.** Which MIC [1] does the source give for `O=C(c1ccc2cccnc2c1O)N1CCC2CCCCC2C1` (stereo not shown) [Example 6, (8-Hydroxyquinolin-7-yl)(octahydroisoquinolin-2(1H)-yl)methanone] here?
**A.** The MIC was 0.5 mg/L (≈ 1.61 µM).

**Q.** What about the MIC [2] of the same compound?
**A.** The MIC was 1.41 mg/L (≈ 4.54 µM).

**Q.** What about the MIC [3] of the same compound?
**A.** Its MIC is 2 mg/L (≈ 6.44 µM).

**Q.** What about the MIC [4] of the same compound?
**A.** Its MIC is 1.41 mg/L (≈ 4.54 µM).

**Q.** What about the MIC [5] of the same compound?
**A.** The MIC was 1.41 mg/L (≈ 4.54 µM).

**Q.** And the MIC [6]?
**A.** Its MIC is 1.41 mg/L (≈ 4.54 µM).

**Q.** With `O=C(c1ccc2cccnc2c1O)N1Cc2ccccc2C1` [Example 10, (8-Hydroxyquinolin-7-yl)(isoindolin-2-yl)methanone] as the compound, how does the MIC [1] read?
**A.** The MIC was 0.25 mg/L (≈ 0.861 µM).

**Q.** And the MIC [2]?
**A.** The MIC was 2 mg/L (≈ 6.89 µM).

**Q.** And the MIC [3]?
**A.** Its MIC is 2 mg/L (≈ 6.89 µM).

**Q.** What about the MIC [4] of the same compound?
**A.** The MIC was 2 mg/L (≈ 6.89 µM).

**Q.** And the MIC [5]?
**A.** The MIC was 2 mg/L (≈ 6.89 µM).

**Q.** What about the MIC [6] of the same compound?
**A.** Its MIC is 1 mg/L (≈ 3.44 µM).

**Q.** For `CN(C(=O)c1ccc2cccnc2c1O)c1ccc(Br)cc1` [Example 29, N-(4-Bromophenyl)-8-hydroxy-N-methylquinoline-7-carboxamide], which MIC [1] is on record?
**A.** Its MIC is 0.13 mg/L (≈ 0.364 µM).

**Q.** And the MIC [2]?
**A.** The MIC was 4 mg/L (≈ 11.2 µM).

**Q.** And the MIC [3]?
**A.** Its MIC is 4 mg/L (≈ 11.2 µM).

**Q.** And the MIC [4]?
**A.** Its MIC is 2 mg/L (≈ 5.6 µM).

**Q.** What about the MIC [5] of the same compound?
**A.** Its MIC is 1 mg/L (≈ 2.8 µM).

**Q.** And the MIC [6]?
**A.** Its MIC is 2 mg/L (≈ 5.6 µM).

**Q.** Which MIC [1] does the source give for `O=C(c1ccc2cccnc2c1O)N1C2CCCCC2C2CCCCC21` (stereo not shown) [Example 49, (Decahydro-1H-carbazol-9(9aH)-yl)(8-hydroxyquinolin-7-yl)methanone] here?
**A.** The MIC was 0.25 mg/L (≈ 0.713 µM).

**Q.** And the MIC [2]?
**A.** The MIC was 2 mg/L (≈ 5.71 µM).

**Q.** And the MIC [3]?
**A.** Its MIC is 2.83 mg/L (≈ 8.08 µM).

**Q.** And the MIC [4]?
**A.** Its MIC is 1 mg/L (≈ 2.85 µM).

**Q.** And the MIC [5]?
**A.** The MIC was 1.41 mg/L (≈ 4.02 µM).

**Q.** And the MIC [6]?
**A.** Its MIC is 0.71 mg/L (≈ 2.03 µM).

**Q.** Which MIC [1] does the source give for `CN(Cc1ccc(Cl)cc1)C(=O)c1ccc2cccnc2c1O` [Example 56, N-(4-Chlorobenzyl)-8-hydroxy-N-methylquinoline-7-carboxamide] here?
**A.** The MIC was 0.71 mg/L (≈ 2.17 µM).

**Q.** And the MIC [2]?
**A.** The MIC was 1.41 mg/L (≈ 4.31 µM).

**Q.** What about the MIC [3] of the same compound?
**A.** The MIC was 2 mg/L (≈ 6.12 µM).

**Q.** And the MIC [4]?
**A.** The MIC was 2 mg/L (≈ 6.12 µM).

**Q.** And the MIC [5]?
**A.** The MIC was 1 mg/L (≈ 3.06 µM).

**Q.** And the MIC [6]?
**A.** The MIC was 2 mg/L (≈ 6.12 µM).

**Q.** With `O=C(c1ccc2cccnc2c1O)N1CCCc2ccc(F)cc21` [Example 61, (7-Fluoro-3,4-dihydroquinolin-1(2H)-yl)(8-hydroxyquinolin-7-yl)methanone] as the compound, how does the MIC [1] read?
**A.** The MIC was 0.25 mg/L (≈ 0.776 µM).

**Q.** What about the MIC [2] of the same compound?
**A.** The MIC was 2 mg/L (≈ 6.2 µM).

**Q.** And the MIC [3]?
**A.** The MIC was 2 mg/L (≈ 6.2 µM).

**Q.** What about the MIC [4] of the same compound?
**A.** The MIC was 0.71 mg/L (≈ 2.2 µM).

**Q.** And the MIC [5]?
**A.** Its MIC is 2 mg/L (≈ 6.2 µM).

**Q.** What about the MIC [6] of the same compound?
**A.** Its MIC is 1 mg/L (≈ 3.1 µM).

**Q.** With `O=C(c1ccc2cccnc2c1O)N1CCCc2c(F)cc(F)cc21` [Example 70, (5,7-Difluoro-3,4-dihydroquinolin-1(2H)-yl)(8-hydroxyquinolin-7-yl)methanone] as the compound, how does the MIC [1] read?
**A.** Its MIC is 0.25 mg/L (≈ 0.735 µM).

**Q.** What about the MIC [2] of the same compound?
**A.** Its MIC is 2 mg/L (≈ 5.88 µM).

**Q.** And the MIC [3]?
**A.** Its MIC is 1 mg/L (≈ 2.94 µM).

**Q.** What about the MIC [4] of the same compound?
**A.** Its MIC is 1 mg/L (≈ 2.94 µM).

**Q.** What about the MIC [5] of the same compound?
**A.** The MIC was 2 mg/L (≈ 5.88 µM).

**Q.** And the MIC [6]?
**A.** Its MIC is 1 mg/L (≈ 2.94 µM).

**Q.** Which MIC [1] does the source give for `O=C(c1ccc2cccnc2c1O)N1CCCc2c(F)cccc21` [Example 71, (5-Fluoro-3,4-dihydroquinolin-1(2H)-yl)(8-hydroxyquinolin-7-yl)methanone] here?
**A.** Its MIC is 0.25 mg/L (≈ 0.776 µM).

**Q.** And the MIC [2]?
**A.** The MIC was 2 mg/L (≈ 6.2 µM).

**Q.** What about the MIC [3] of the same compound?
**A.** The MIC was 2.83 mg/L (≈ 8.78 µM).

**Q.** And the MIC [4]?
**A.** The MIC was 0.71 mg/L (≈ 2.2 µM).

**Q.** And the MIC [5]?
**A.** Its MIC is 2 mg/L (≈ 6.2 µM).

**Q.** What about the MIC [6] of the same compound?
**A.** The MIC was 1 mg/L (≈ 3.1 µM).

**Q.** Which results are given for `O=C(c1ccc2cccnc2c1O)N1CCCc2cc(F)ccc21` [Example 72, (6-Fluoro-3,4-dihydroquinolin-1(2H)-yl)(8-hydroxyquinolin-7-yl)methanone]?
**A.** MIC [1]: 0.25 mg/L (≈ 0.776 µM); MIC [2]: 2 mg/L (≈ 6.2 µM); MIC [3]: 2 mg/L (≈ 6.2 µM); MIC [4]: 0.5 mg/L (≈ 1.55 µM); MIC [5]: 2 mg/L (≈ 6.2 µM); MIC [6]: 1 mg/L (≈ 3.1 µM)

**Q.** Which MIC [1] does the source give for `O=C(c1ccc2cccnc2c1O)N1CCCc2c(Cl)ccc(O)c21` [Example 73, (5-Chloro-8-hydroxy-3,4-dihydroquinolin-1(2H)-yl)(8-hydroxyquinolin-7-yl)methanone] here?
**A.** The MIC was 0.125 mg/L (≈ 0.352 µM).

**Q.** And the MIC [2]?
**A.** Its MIC is 2 mg/L (≈ 5.64 µM).

**Q.** What about the MIC [3] of the same compound?
**A.** The MIC was 1 mg/L (≈ 2.82 µM).

**Q.** What about the MIC [4] of the same compound?
**A.** Its MIC is 4 mg/L (≈ 11.3 µM).

**Q.** And the MIC [5]?
**A.** Its MIC is 2 mg/L (≈ 5.64 µM).

**Q.** And the MIC [6]?
**A.** The MIC was 2 mg/L (≈ 5.64 µM).

**Q.** With `O=C(c1ccc2cccnc2c1O)N1CCOc2ccccc21` [Example 74, (2H-Benzo[b][1,4]oxazin-4(3H)-yl)(8-hydroxyquinolin-7-yl)methanone] as the compound, how does the MIC [1] read?
**A.** The MIC was 0.18 mg/L (≈ 0.588 µM).

**Q.** What about the MIC [2] of the same compound?
**A.** The MIC was 2 mg/L (≈ 6.53 µM).

**Q.** And the MIC [3]?
**A.** Its MIC is 2 mg/L (≈ 6.53 µM).

**Q.** And the MIC [4]?
**A.** The MIC was 0.71 mg/L (≈ 2.32 µM).

**Q.** And the MIC [5]?
**A.** Its MIC is 1.41 mg/L (≈ 4.6 µM).

**Q.** And the MIC [6]?
**A.** Its MIC is 1 mg/L (≈ 3.26 µM).
